Reference: patent publication US10696686B2, “Herbicidally active (alkynyl-phenyl)-substituted cyclic dione compounds and derivatives thereof” (Syngenta Limited, priority 2013, dated 2020)

What was measured:
Test in all cases: Biological Example 3 glasshouse assay using various adjuvant systems, post-emergence foliar spray
Type in all cases: in vivo
[1] = system: Zea mays (ZEAMX, maize, corn) cultivar Garland; details: 8 g/ha
Method: (§1) Post-emergence foliar spray application, 200 L/ha, usually one or two replicates for the weeds (depending on application rate), and two replicates for soybean.
(§2) Standard warm conditions (tropical), in glasshouse. Specifically, the glasshouse bay conditions are 24° C./18° C. day/night; 16/8 hours light/dark; 65% humidity.
(§3) The herbicidal application takes place at the following growth stages for plants which include inter alia one or more of the following plants (usually the herbicidal application takes place on at least the following plants: DIGSA, ELEIN, SETFA, ZEAMX, GLXMA Nikko, and GLXMA TMG133, and often also either BRADC or BRAPP):
Zea mays (ZEAMX, maize/corn, e.g. can occur as volunteer corn) cultivar “Garland”—growth stage 12 or 13
(§4) Each test compound is applied with one of the following adjuvant systems (all percentages are final concentrations in the aqueous spray mixture):
(§5) Adjuvant system 1: 0.5% v/v Adigor™ *, 1.0% v/v AMS (ammonium sulphate) and 12.5% v/v IPA (isopropyl alcohol).
(§6) Adjuvant system 1A: 0.5% v/v Adigor™ * and 12.5% v/v IPA (isopropyl alcohol).
(§7) CAS Registry no. 166412-78-8), and is usually available from BASF. “Isononyl” in this context is thought to mean a mixture of two or more branched isomers of C9H19. […] A visual assessment of the % herbicidal damage is made 7 and 14 Days After herbicide Application (DAA) (or, in a minority of cases, 7 and 15 DAA), and the results are recorded as % visual herbicidal damage where 0%=no damage to plants and 100%=plant totally killed. *** Adjuvant system=either Adigor™ or Hexamoll DINCH™ or tris-(2-ethylhexyl) phosphate each at 0.5% v/v, and 12.5% v/v IPA (isopropyl alcohol), and 1.0% v/v AMS (ammonium sulphate); or 0.5% v/v Adigor™ and 12.5% v/v IPA (isopropyl alcohol); all percentages are final concentrations in the aqueous spray mixture. […]

[2] = system: Brachiaria decumbens (BRADC); details: 8 g/ha
Method: as §1, §2, §3
Brachiaria decumbens (BRADC)—growth stage (GS) 12 or 13 (or GS 12)—or, if BRADC is not used, then usually Brachiaria platyphylla (BRAPP)—growth stage 12 or 13
as §4, §5, §6, §7

[3] = system: Glycine max (GLXMA, soybean) cultivar TMG133
Method: as §1, §2, §3
Glycine max (GLXMA, soybean) cultivar “TMG133”—which is Roundup Ready™ glyphosate-tolerant soybean cultivar TMG133 (typically available from Monsanto in Brazil)—growth stage: 1st trifoliate.
as §4, §5, §6
(§8) CAS Registry no. 166412-78-8), and is usually available from BASF. “Isononyl” in this context is thought to mean a mixture of two or more branched isomers of C9H19. Method: Seeds of the weed (including volunteer) plants, typically including inter alia Digitaria sanguinalis (DIGSA), Eleusine indica (ELEIN), Setaria faberi (SETFA), Zea mays (ZEAMX, corn), and sometimes also [either Brachiaria decumbens (BRADC) or Brachiaria platyphylla (BRAPP)], are sown in seed trays (troughs) containing clay loam soil (pH 7.0, 2.2% organic matter, “Trough Mix A”); and soybean seed is sown in pots containing the same soil with 3 soybean seedlings per pot. The plants are sprayed with the test herbicide when they reach the growth stages mentioned above. The test herbicidal solutions are prepared by mixing the appropriate aliquots of the test substance(s) and one of the adjuvant systems indicated above *** in deionised water to give the desired treatment concentration. The herbicidal application is made as a foliar spray, using a tracksprayer. Following the herbicidal application, the plants are watered twice per day for the duration of the test. A visual assessment of the % herbicidal damage is made 7 and 14 Days After herbicide Application (DAA) (or, in a minority of cases, 7 and 15 DAA), and the results are recorded as % visual herbicidal damage where 0%=no damage to plants and 100%=plant totally killed. *** Adjuvant system=either Adigor™ or Hexamoll DINCH™ or tris-(2-ethylhexyl) phosphate each at 0.5% v/v, and 12.5% v/v IPA (isopropyl alcohol), and 1.0% v/v AMS (ammonium sulphate); or 0.5% v/v Adigor™ and 12.5% v/v IPA (isopropyl alcohol); all percentages are final concentrations in the aqueous spray mixture.
(§9) Compounds A8, A11 and A17, which are compounds of formula (I) according to the present invention, were tested in a test method substantially as described above.
(§10) Compound A8 was tested using the 0.5% v/v Adigor™+12.5% v/v IPA adjuvant system. Compounds A11 and A17 were tested using the 0.5% v/v Adigor™+1.0% v/v AMS+12.5% v/v IPA adjuvant system.
The percentages of herbicidal damage/plant control, at 14 Days After herbicide Application (DAA) (or, in a minority of cases, at 15 DAA), for the Compounds tested and for some of the plants tested, were in the following percentage ranges. […]

Eleusine indica (ELEIN) = details: 8 g/ha
Method: as §1, §2, §3
Eleusine indica (ELEIN)—growth stage 12 or 13
as §4, §5, §6
(§11) CAS Registry no. […] A visual assessment of the % herbicidal damage is made 7 and 14 Days After herbicide Application (DAA) (or, in a minority of cases, 7 and 15 DAA), and the results are recorded as % visual herbicidal damage where 0%=no damage to plants and 100%=plant totally killed. *** Adjuvant system=either Adigor™ or Hexamoll DINCH™ or tris-(2-ethylhexyl) phosphate each at 0.5% v/v, and 12.5% v/v IPA (isopropyl alcohol), and 1.0% v/v AMS (ammonium sulphate); or 0.5% v/v Adigor™ and 12.5% v/v IPA (isopropyl alcohol); all percentages are final concentrations in the aqueous spray mixture. […]
(§12) The percentages of herbicidal damage/plant control, at 14 Days After herbicide Application (DAA) (or, in a minority of cases, at 15 DAA), for the Compounds tested and for some of the plants tested, were in the following percentage ranges. […] Phytotoxicity on Glycine max (GLXMA, Soybean) Cultivar “TMG133” Glycine max (GLXMA, soybean) cultivar “TMG133” is Roundup Ready™ glyphosate-tolerant soybean cultivar TMG133, and is typically available from Monsanto in Brazil.

Setaria faberi (SETFA) = details: 8 g/ha
Method: as §1, §2, §3
Setaria faberi (SETFA)—growth stage 12 or 13
as §4, §5, §6, §11, §12

[4] = system: Glycine max (GLXMA, soybean) cultivar Nikko; details: for percentage phytotoxicity on Glycine max (GLXMA, soybean) cultivar Nikko: post-emergence
Method: as §1, §2, §3
Glycine max (GLXMA, soybean) cultivar “Nikko”—growth stage: 1st trifoliate
as §4, §5, §6, §8, §9, §10
The percentages of herbicidal damage/plant control, at 14 Days After herbicide Application (DAA) (or, in a minority of cases, at 15 DAA), for the Compounds tested and for some of the plants tested, were in the following percentage ranges. At least for Compounds A8 and A17, the phytotoxicity results shown herein are the average of 2 repetitions (for the grassy weeds, corn and soybean). […] Control of Zea mays (ZEAMX, Corn), a Warm-Climate (Warm-Season) Grassy Plant Zea mays (ZEAMX, maize, corn) is often present as a “volunteer” weed (“volunteer” corn) in fields where it was planted as a crop in preceding growing season(s) and where the present field crop is not corn. […]

[5] = 14 DAA, adjuvant 0.5% v/v Adigor + 12.5% v/v IPA
[6] = 120 g/ha, 14 DAA, adjuvant 0.5% v/v Adigor + 12.5% v/v IPA
[7] = 14 DAA (A11: 14 or 15 DAA), adjuvant 0.5% v/v Adigor + 1.0% v/v AMS + 12.5% v/v IPA
[8] = 120 g/ha, 14 DAA (A11: 14 or 15 DAA), adjuvant 0.5% v/v Adigor + 1.0% v/v AMS + 12.5% v/v IPA
[9] = 240 g/ha, 14 DAA (A11: 14 or 15 DAA), adjuvant 0.5% v/v Adigor + 1.0% v/v AMS + 12.5% v/v IPA

SMILES: C#CCC1CC(=O)C(c2c(F)cc(C#CC)cc2OC)C1=O (stereo not drawn) [Compound A8, 2-(2-fluoro-6-methoxy-4-prop-1-ynyl-phenyl)-4-prop-2-ynyl-cyclopentane-1,3-dione]
- percentage control of (phytotoxicity on) Zea mays (ZEAMX, maize, corn) [1, 5]: 65%
- percentage control of (phytotoxicity on) Brachiaria decumbens (BRADC) [2, 5]: 0%
- percentage phytotoxicity on Glycine max (GLXMA, soybean) cultivar TMG133 [3, 6]: 17.5%
- percentage control of (phytotoxicity on) Eleusine indica (ELEIN) (Eleusine indica (ELEIN); [5]): 40%
- percentage control of (phytotoxicity on) Setaria faberi (SETFA) (Setaria faberi (SETFA); [5]): 75%
- percentage phytotoxicity on Glycine max (GLXMA, soybean) cultivar Nikko [4, 6]: 30%
- phytotoxicity on soybean (in words) ([4]; see Biological Example 3 (soybean cultivars Nikko and TMG133)): low phytotoxicity

SMILES: CC#Cc1cc(F)c(C2C(=O)CC(CCSC)CC2=O)c(OC)c1 (stereo not drawn) [Compound A11]
- percentage control of Zea mays (ZEAMX, maize, corn) [1, 7]: 0%
- percentage control of (phytotoxicity on) Brachiaria decumbens (BRADC) [2, 7]: 0%
- percentage phytotoxicity on Glycine max (GLXMA, soybean) cultivar TMG133 [3, 8]: 5%
- percentage phytotoxicity on Glycine max (GLXMA, soybean) cultivar TMG133 [3, 9]: 5%
- percentage control of Eleusine indica (ELEIN) (Eleusine indica (ELEIN); [7]): 0%
- percentage control of Setaria faberi (SETFA) (Setaria faberi (SETFA); [7]): 0%
- percentage phytotoxicity on Glycine max (GLXMA, soybean) cultivar Nikko [4, 8]: 5%
- percentage phytotoxicity on Glycine max (GLXMA, soybean) cultivar Nikko [4, 9]: 5%
